One assay addresses STK4 (Homo sapiens (Human), UniProt Q13043). Nature of the assay: ADP-Glo kinase assay, STK4. In kind it is biochemical. As to conditions: ADP-Glo, 50 μM ATP; read-out: STK4 IC50. As to the method: (§1) The STK3 kinase assay was performed in 5 μL reaction buffer containing 50 ng recombinant human STK3 protein (full length, SignalChem #S24-10G; Richmond, Canada), 250 μg/mL myelin basic protein (Sigma-Aldrich #M1891; St. Louis, MO, USA), and 50 μM ATP (Sigma-Aldrich #A7699). The STK4 kinase assay was performed in 5 μL reaction buffer containing 50 ng recombinant human STK4 protein (full length, SignalChem #S25-10G), 300 μg/mL Axltide (SignalChem #A16-58), and 50 μM ATP. […] Three experiments were performed, each in triplicate.

For another assay, the target named is STK3 (Homo sapiens (Human), UniProt Q13188). Nature of the assay: ADP-Glo kinase assay, STK3. The format is biochemical. The procedure:
as §1
(ADP-Glo first removes unused ATP, then detects ADP through luciferase.)

Where [1] appears, read: ADP-Glo, 50 μM ATP, read-out: STK3 IC50.

Like-named read-outs stand apart in the source and are kept apart here.

The term IC50 denotes the concentration at which inhibition is half-maximal.

STK3, sequence (Q13188 whole entry): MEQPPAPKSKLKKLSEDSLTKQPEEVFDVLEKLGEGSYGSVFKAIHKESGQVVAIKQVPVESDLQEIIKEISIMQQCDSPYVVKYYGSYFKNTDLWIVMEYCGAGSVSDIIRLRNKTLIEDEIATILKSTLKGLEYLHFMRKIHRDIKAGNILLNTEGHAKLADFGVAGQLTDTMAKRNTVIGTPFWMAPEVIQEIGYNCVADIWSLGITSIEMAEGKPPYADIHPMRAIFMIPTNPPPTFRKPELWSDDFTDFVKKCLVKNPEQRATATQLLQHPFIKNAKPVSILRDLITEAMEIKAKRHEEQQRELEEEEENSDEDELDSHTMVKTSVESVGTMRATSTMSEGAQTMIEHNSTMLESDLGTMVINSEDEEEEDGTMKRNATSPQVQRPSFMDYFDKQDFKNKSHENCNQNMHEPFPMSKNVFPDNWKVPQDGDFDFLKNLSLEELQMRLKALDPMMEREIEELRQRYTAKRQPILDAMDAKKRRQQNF
STK4, sequence (Q13043 whole entry): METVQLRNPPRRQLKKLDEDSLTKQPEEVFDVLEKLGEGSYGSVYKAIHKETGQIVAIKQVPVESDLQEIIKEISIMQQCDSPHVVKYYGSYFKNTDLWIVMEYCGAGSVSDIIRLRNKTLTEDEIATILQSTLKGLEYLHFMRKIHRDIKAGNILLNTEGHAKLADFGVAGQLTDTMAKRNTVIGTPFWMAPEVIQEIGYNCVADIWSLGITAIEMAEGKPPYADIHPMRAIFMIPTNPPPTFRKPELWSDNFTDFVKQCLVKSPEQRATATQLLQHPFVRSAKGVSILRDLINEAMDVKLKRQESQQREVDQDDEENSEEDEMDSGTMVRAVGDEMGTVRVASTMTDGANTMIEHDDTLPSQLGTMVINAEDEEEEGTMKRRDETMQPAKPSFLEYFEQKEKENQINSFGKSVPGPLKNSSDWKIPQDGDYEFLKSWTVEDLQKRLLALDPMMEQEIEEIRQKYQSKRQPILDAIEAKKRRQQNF

With `Clc1cccc(-c2c[nH]c3ncnc(NCc4ccoc4)c23)c1` [Compound 62, 5-(3-chlorophenyl)-N-(furan-3-ylmethyl)-7H-pyrrolo[2,3-d]pyrimidin-4-amine], the IC50 at STK4 and at STK3 (setting [1]) was < 1000 nM throughout.

On to `O=C1CCN(c2ncnc3[nH]cc(-c4cccc(Cl)c4)c23)CC1` [Compound 118, 1-(5-(3-chlorophenyl)-7H-pyrrolo[2,3-d]pyrimidin-4-yl)piperidin-4-one], for which the IC50 is < 1000 nM at STK4 and 1000 to 5000 nM at STK3.

For `CC1CCN(c2ncnc3[nH]cc(-c4cccc(Cl)c4)c23)CC1` [Compound 109, 5-(3-chlorophenyl)-4-(4-methylpiperidin-1-yl)-7H-pyrrolo[2,3-d]pyrimidine], the IC50 on STK4 and on STK3 (setting [1]) was < 1000 nM throughout.

With `CCCCNc1ncnc2[nH]cc(-c3cccc(Cl)c3)c12` [Compound 116, N-butyl-5-(3-chlorophenyl)-7H-pyrrolo[2,3-d]pyrimidin-4-amine], the IC50 at STK4 and on STK3 (setting [1]) was < 1000 nM each time.

As to `CCN1CCN(c2ncnc3[nH]cc(-c4cccc(Cl)c4)c23)CC1` [Compound 48, 5-(3-chlorophenyl)-4-(4-ethylpiperazin-1-yl)-7H-pyrrolo[2,3-d]pyrimidine], the IC50 on STK4 and on STK3 (setting [1]) was > 5000 nM in each case.

`Clc1cccc(-c2c[nH]c3ncnc(N4CCC(N5CCCCC5)CC4)c23)c1` [Compound 81, 4-([1,4′-bipiperidin]-1′-yl)-5-(3-chlorophenyl)-7H-pyrrolo[2,3-d]pyrimidine]: the IC50 on STK4 is 1000 to 5000 nM; on STK3 (setting [1]), > 5000 nM.

Take `Clc1cccc(-c2c[nH]c3ncnc(N4CCC4)c23)c1` [Compound 46, 4-(azetidin-1-yl)-5-(3-chlorophenyl)-7H-pyrrolo[2,3-d]pyrimidine]: the IC50 at STK4 and at STK3 (setting [1]) was 1000 to 5000 nM throughout.

Take `CC(CO)CNc1ncnc2[nH]cc(-c3cccc(Cl)c3)c12` (stereo not shown) [Compound 117, 3-((5-(3-chlorophenyl)-7H-pyrrolo[2,3-d]pyrimidin-4-yl)amino)-2-methylpropan-1-ol]: the IC50 on STK4 and at STK3 (setting [1]) was < 1000 nM in each case.

Turning to `FC(F)(F)Oc1cccc(-c2c[nH]c3ncnc(N4CCOCC4)c23)c1` [Compound 27, 4-(5-(3-(trifluoromethoxy)phenyl)-7H-pyrrolo[2,3-d]pyrimidin-4-yl)morpholine], the IC50 at STK4 and at STK3 (setting [1]) was 1000 to 5000 nM throughout.

Turning to `CC(=O)NCC(C)CNc1ncnc2[nH]cc(-c3cccc(Cl)c3)c12` (stereo not shown) [Compound 129, N-(3-((5-(3-chlorophenyl)-7H-pyrrolo[2,3-d]pyrimidin-4-yl)amino)-2-methylpropyl)acetamide], the IC50 at STK4 and at STK3 (setting [1]) was < 1000 nM in each case.

`Clc1cccc(-c2c[nH]c3ncnc(NCCN4CCOCC4)c23)c1` [Compound 66, 5-(3-chlorophenyl)-N-(2-morpholinoethyl)-7H-pyrrolo[2,3-d]pyrimidin-4-amine]: the IC50 at STK4 and at STK3 (setting [1]) was 1000 to 5000 nM in each case.

With `CC(CN)CNc1ncnc2[nH]cc(-c3cccc(Cl)c3)c12` (stereo not shown) [Compound 127, N^1-(5-(3-chlorophenyl)-7H-pyrrolo[2,3-d]pyrimidin-4-yl)-2-methylpropane-1,3-diamine], the IC50 at STK4 and on STK3 (setting [1]) was < 1000 nM in each case.

`Clc1cccc(-c2c[nH]c3ncnc(N4CCC(c5ccccc5)CC4)c23)c1` [Compound 87, 5-(3-chlorophenyl)-4-(4-phenylpiperidin-1-yl)-7H-pyrrolo[2,3-d]pyrimidine]: the IC50 at STK4 and at STK3 (setting [1]) was > 5000 nM in each case.

In the case of `COCCNc1ncnc2[nH]cc(-c3cccc(Cl)c3)c12` [Compound 58, 5-(3-chlorophenyl)-N-(2-methoxyethyl)-7H-pyrrolo[2,3-d]pyrimidin-4-amine], the IC50 at STK4 and at STK3 (setting [1]) was > 5000 nM throughout.

With `Cn1cc(-c2c[nH]c3ncnc(N4CCOCC4)c23)cn1` [Compound 41, 4-(5-(1-methyl-1H-pyrazol-4-yl)-7H-pyrrolo[2,3-d]pyrimidin-4-yl)morpholine], the IC50 on STK4 is < 1000 nM; at STK3 (setting [1]), 1000 to 5000 nM.

For `N#Cc1ccc(Nc2nc(N3CCOCC3)c3c(-c4cccc(Cl)c4)c[nH]c3n2)cc1` [Compound 120, 4-((5-(3-chlorophenyl)-4-morpholino-7H-pyrrolo[2,3-d]pyrimidin-2-yl)amino)benzonitrile], the IC50 at STK4 and on STK3 (setting [1]) was > 5000 nM throughout.

On to `Clc1ncccc1-c1c[nH]c2ncnc(N3CCOCC3)c12` [Compound 34, 4-(5-(2-chloropyridin-3-yl)-7H-pyrrolo[2,3-d]pyrimidin-4-yl)morpholine], for which the IC50 on STK4 and on STK3 (setting [1]) was > 5000 nM throughout.

Consider `CCNc1ncnc2[nH]cc(-c3cccc(Cl)c3)c12` [Compound 49, 5-(3-chlorophenyl)-N-ethyl-7H-pyrrolo[2,3-d]pyrimidin-4-amine], for which the IC50 at STK4 and on STK3 (setting [1]) was < 1000 nM in each case.

On to `Cc1cccc(CNc2ncnc3[nH]cc(-c4cccc(Cl)c4)c23)c1` [Compound 91, 5-(3-chlorophenyl)-N-(3-methylbenzyl)-7H-pyrrolo[2,3-d]pyrimidin-4-amine], for which the IC50 on STK4 and on STK3 (setting [1]) was > 5000 nM in each case.

Take `CC(CNc1ncnc2[nH]cc(-c3cccc(Cl)c3)c12)C(=O)O` (stereo not shown) [Compound 126, 3-((5-(3-chlorophenyl)-7H-pyrrolo[2,3-d]pyrimidin-4-yl)amino)-2-methylpropanoic acid]: the IC50 at STK4 and at STK3 (setting [1]) was 1000 to 5000 nM throughout.

On to `COc1ncc(-c2c[nH]c3ncnc(N4CCOCC4)c23)cn1` [Compound 38, 4-(5-(2-methoxypyrimidin-5-yl)-7H-pyrrolo[2,3-d]pyrimidin-4-yl)morpholine], for which the half-maximal inhibitory concentration (IC50) at STK4 and at STK3 (setting [1]) was > 5000 nM each time.

With `Clc1cccc(-c2c[nH]c3ncnc(NCc4ccn[nH]4)c23)c1` [Compound 59, N-((1H-pyrazol-5-yl)methyl)-5-(3-chlorophenyl)-7H-pyrrolo[2,3-d]pyrimidin-4-amine], the results for the concentration for half-maximal inhibition (IC50) on STK4 and at STK3 (setting [1]) were < 1000 nM and 1000 to 5000 nM, respectively.

`CC(CNc1ncnc2[nH]cc(-c3cccc(Cl)c3)c12)C(N)=O` (stereo not shown) [Compound 125, 3-((5-(3-chlorophenyl)-7H-pyrrolo[2,3-d]pyrimidin-4-yl)amino)-2-methylpropanamide]: the IC50 at STK4 and at STK3 (setting [1]) was < 1000 nM in each case.

Consider `CS(=O)(=O)c1ccc(-c2c[nH]c3ncnc(N4CCOCC4)c23)cc1` [Compound 40, 4-(5-(4-(methylsulfonyl)phenyl)-7H-pyrrolo[2,3-d]pyrimidin-4-yl)morpholine], for which the 50% inhibitory concentration (IC50) on STK4 and at STK3 (setting [1]) was > 5000 nM throughout.

With `Clc1ccc(-c2c[nH]c3ncnc(N4CCOCC4)c23)cc1` [Compound 25, 4-(5-(4-Chlorophenyl)-7H-pyrrolo[2,3-d]pyrimidin-4-yl)morpholine], the values for the IC50 on STK4 and at STK3 (setting [1]) were 1000 to 5000 nM and < 1000 nM, respectively.

Consider `Clc1cccc(-c2c[nH]c3ncnc(NCCc4ccccn4)c23)c1` [Compound 63, 5-(3-chlorophenyl)-N-(2-(pyridin-2-yl)ethyl)-7H-pyrrolo[2,3-d]pyrimidin-4-amine], for which the figures for the IC50 at STK4 and on STK3 (setting [1]) were < 1000 nM and 1000 to 5000 nM, respectively.

Turning to `COc1ccccc1CNc1ncnc2[nH]cc(-c3cccc(Cl)c3)c12` [Compound 68, 5-(3-chlorophenyl)-N-(2-methoxybenzyl)-7H-pyrrolo[2,3-d]pyrimidin-4-amine], the IC50 on STK4 and at STK3 (setting [1]) was 1000 to 5000 nM each time.

In the case of `NS(=O)(=O)c1ccc(Nc2nc(N3CCOCC3)c3c(-c4cccc(Cl)c4)c[nH]c3n2)cc1` [Compound 96, 4-((5-(3-chlorophenyl)-4-morpholino-7H-pyrrolo[2,3-d]pyrimidin-2-yl)amino)benzenesulfonamide], the figures for the half-inhibitory concentration (IC50) on STK4 and on STK3 (setting [1]) were < 1000 nM and 1000 to 5000 nM, respectively.

`CCN(CC)c1ncnc2[nH]cc(-c3cccc(Cl)c3)c12` [Compound 51, 5-(3-chlorophenyl)-N,N-diethyl-7H-pyrrolo[2,3-d]pyrimidin-4-amine]: the IC50 at STK4 and at STK3 (setting [1]) was < 1000 nM in each case.

Consider `Clc1cccc(-c2c[nH]c3ncnc(NCc4ccc(Cl)nc4)c23)c1` [Compound 86, 5-(3-chlorophenyl)-N-((6-chloropyridin-3-yl)methyl)-7H-pyrrolo[2,3-d]pyrimidin-4-amine], for which the concentration for half-maximal inhibition (IC50) at STK4 and on STK3 (setting [1]) was > 5000 nM throughout.

Take `Clc1ccccc1-c1c[nH]c2ncnc(N3CCOCC3)c12` [Compound 24, 4-(5-(2-Chlorophenyl)-7H-pyrrolo[2,3-d]pyrimidin-4-yl)morpholine]: the IC50 at STK4 and on STK3 (setting [1]) was 1000 to 5000 nM throughout.

As for `CC(=O)N(C)CC(C)CN(C)c1ncnc2[nH]cc(-c3cccc(Cl)c3)c12` (stereo not shown) [Compound 128], the IC50 at STK4 is 1000 to 5000 nM; on STK3 (setting [1]) it was < 1000 nM.

For `O=[N+]([O-])c1ccc(Nc2nc(N3CCOCC3)c3c(-c4cccc(Cl)c4)c[nH]c3n2)cc1` [Compound 101, 5-(3-chlorophenyl)-4-morpholino-N-(4-nitrophenyl)-7H-pyrrolo[2,3-d]pyrimidin-2-amine], the IC50 at STK4 and on STK3 (setting [1]) was > 5000 nM each time.

`c1ccc(-c2c[nH]c3ncnc(N4CCOCC4)c23)cc1` [Compound 1, 4-(5-Phenyl-7H-pyrrolo[2,3-d]pyrimidin-4-yl)morpholine]: the IC50 at STK4 and on STK3 (setting [1]) was < 1000 nM throughout.

Consider `CC(=O)NC1(C)CCN(c2ncnc3[nH]cc(-c4cccc(Cl)c4)c23)CC1` [Compound 124, N-(1-(5-(3-chlorophenyl)-7H-pyrrolo[2,3-d]pyrimidin-4-yl)-4-methylpiperidin-4-yl)acetamide], for which the IC50 at STK4 and on STK3 (setting [1]) was 1000 to 5000 nM each time.

The values above are taken from patent US20250051337A1 (priority 2021, published 2025).
